The term IC50 denotes the midpoint of a concentration-inhibition curve. A higher IC50 goes with lower potency.

In this assay the target is S-adenosylmethionine synthase isoform type-2 (Homo sapiens, UniProt P31153). Briefly: Measurement of Mat2A inhibition is performed in 384 well format absorbance-based assay. The procedure: Recombinant human Mat2a (12.5 nM) and serial diluted compounds in DMSO (range of concentrations from 10 μM to […]) or controls (DMSO) are incubated for 15 minutes at room temperature (RT) in assay buffer containing 50 mM HEPES pH 7.5, 50 mM KCl, 50 mM MgCl2, 0.01% Tween 20 and 10 mM DTT. The reaction is initiated by the addition of the combined substrates ATP and Methionine, each at a final concentration of 100 μM. Final assay condition are 12.5 nM Mat2A, 100 μM ATP and Methionine Substrates and 2% DMSO. After 120 minutes of incubation at RT, the reaction is stopped by the addition of Biomol Green. The absorbance signal is measured at λ=635 nm with a multiplate reader (BMG Pherastar reader or equivalent) after 30 min of equilibration at RT.
Sequence of S-adenosylmethionine synthase isoform type-2 (P31153 whole entry, canonical isoform): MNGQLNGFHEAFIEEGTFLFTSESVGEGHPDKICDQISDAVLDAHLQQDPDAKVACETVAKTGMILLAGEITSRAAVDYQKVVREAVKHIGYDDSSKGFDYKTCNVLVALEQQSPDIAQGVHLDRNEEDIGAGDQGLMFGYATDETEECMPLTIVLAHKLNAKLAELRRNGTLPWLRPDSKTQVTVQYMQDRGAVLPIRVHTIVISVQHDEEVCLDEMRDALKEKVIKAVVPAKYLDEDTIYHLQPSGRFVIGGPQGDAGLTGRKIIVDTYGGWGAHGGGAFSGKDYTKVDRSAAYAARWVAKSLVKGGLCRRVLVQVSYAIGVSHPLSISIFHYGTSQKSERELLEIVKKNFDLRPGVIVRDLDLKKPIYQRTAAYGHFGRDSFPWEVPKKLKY
`COc1ccccc1C(=O)n1nc(N)c2cc(F)c(N3CCCC3)nc21` [US20230382911, Example 11] came in with an IC50 of 66 nM.
In the case of `Cc1ccccc1C(=O)n1nc(N)c2ccc([C@H]3[C@H](C)[C@@H]3C)nc21` [US20230382911, Example 43] it was 35 nM; in that of `COc1ccccc1C(=O)n1nc(N)c2ccc([C@H]3[C@H](C)[C@@H]3C)nc21` [US20230382911, Example 44], 13 nM.

The record behind these values is BindingDB's records for patent US20230382911 (Hoffmann-La Roche, 2023).
